In patent US5554653A, “Inhibitors of HIV protease useful for the treatment of AIDS” (Eli Lilly and Company, priority 1992, dated 1996):

Target: T1, HIV-1 protease (Human immunodeficiency virus type 1 group M subtype B, UniProt P04585)
T1 construct: Purified HIV-1 protease was obtained as described above; made in house; host or cells: E. coli K12 L507/pHP10D (NRRL B-18560)
Assay: biochemical
Type: biochemical
Conditions: for IC50: read-out: Fluorescence Assay IC50 (converted)
Protocol: C. Preparation of Protease Fraction
A culture of E. coli K12 L507/pHP10D was grown to mid-log phase at 32° C. in LB media containing 12.5 μg/ml tetracycline. The cultivation temperature was quickly elevated to 40° C. to induce gene expression, and the cells were allowed to grow for 2.5 hours at this temperature before the culture was quickly chilled on ice. The cells were centrifuged and the cell pellet was resuspended in 20 mL 50 mmol MES buffer (pH 6.0) containing 1 mmol EDTA, 1 mmol DTT, 1 mmol PMSF and 10% glycerol ("Buffer A"). Cells were lysed by sonication using a Fischer Model 300 Dismembrator and a microtip probe. Following centrifugation at 27,000×g, the supernatant was diluted to a total volume of 60 mL with Buffer A and loaded onto a 2.0×19 cm QAE-Sepharose column (1 mL/min, 4° C.), that had been equilibrated in Buffer A. The column was washed isocratically for 180 min and then eluted with a gradient eluent of 0-1.0M sodium chloride in Buffer A over 120 min. Enzymatic activity was measured by HPLC using the synthetic peptide SQNYPIV as described in Margolin et al., Biochem. Biophys. Res. Commun., 167, 554-560 (1990); the production of the p1 peptide (SQNY) was measured.
The active fractions were combined, made 1.2M in ammonium sulfate, and applied to a 2.0×18 cm hexyl agarose column that had been equilibrated in Buffer A containing 1.2M ammonium sulfate. The sample was loaded at a flow rate of 1 mL/min at 4° C., washed with the equilibration buffer for 240 min (1 mL/min) and then eluted using a reverse linear gradient of 1.2-0M ammonium sulfate in Buffer A for 120 min at the same flow rate. The column was then washed isocratically in Buffer A for 120 min.
The active fractions were combined, concentrated to 10 mL using an Amicon stirred cell with a YM-10 membrane and then applied to a MonoS cation exchange column (1.0×10 cm) that had been equilibrated in Buffer A. The sample was loaded at a flow rate of 1 mL/min at 25° C. After washing isocratically for 30 min, the protease was eluted using a linear gradient of 0-0.45M sodium chloride in Buffer A over 40 min. The column was washed isocratically in Buffer A containing 0.45M sodium chloride for 30 min.
The active fractions were combined and concentrated to 200 μL using an Amicon stirred cell and a YM-10 membrane and then the protease was applied to a Superose 6 size exclusion column equilibrated in Buffer A containing 0.1M sodium chloride.
The purified peptide was labeled with a fluorescent marker at the C-terminal end for use in the Pandex assay. N^α -Biotin-[…]OH SEQ ID NO:3. (1.206 g, 0.936 mmol) was dissolved in 100 mL of 0.1M sodium borate, pH 9.5. Then, a solution of 3 g (7.7 mmol) of fluorescein isothiocyanate in 15 mL dimethyl sulfoxide was added to the reaction mixture in 10 equal portions over two hours. The resulting mixture was allowed to react for one hour after the final addition. The solution was adjusted to pH 3 using 5N hydrochloric acid, resulting in the formation of a precipitate which was removed by centrifugation.
E. Fluorescence HIV-1 Protease Inhibitor Assay
The following buffers and solutions are used in the Fluorescence HIV-1 Protease Inhibitor Assay:
MES-ALB Buffer: 0.05M 4-morpholineethane
Avidin Coated 0.1% solution of Fluoricon
Beads Solution: Avidin Assay Particles
(Avidin conjugated to solid
polystyrene beads, 0.6-0.8
microns in diameter in TBSA
27 IU/mL of purified HIV-1
protease in MES-ALB buffer
(1 IU equals the amount of
enzyme required to hydrolyze
1 μmole of substrate per
To each well of a round bottom, 96-well plate is added 20 μL of the Enzyme Solution followed by 10 μL of the compound to be evaluated in a 20% aqueous dimethylsulfoxide solution. Purified HIV-1 protease was obtained as described above.

IC50 [µM] | IC5 (read-out: Fluorescence Assay IC5) [µg/mL] | SMILES
0.13 | – | CC(=O)N[C@H](CSc1ccccc1)C(=O)N[C@@H](Cc1ccccc1)[C@H](O)Cc1ccccc1C(=O)NC(C)(C)C (relative stereo) [Example 20A, [2R(2R*,3S*,6S*)]-N-t-Butyl-2-[2-hydroxy-3-phenylmethyl-4-aza-5-oxo-6-N(ethanoyl)amino-7-phenylthio]heptyl benzamide]
0.0561 | – | CC(=O)N[C@H](CC(=O)OCc1ccccc1)C(=O)N[C@@H](Cc1ccccc1)[C@H](O)Cc1ccccc1C(=O)NC(C)(C)C [Example 1C, [2R-(2R*, 3S*, 6R*)1-N-t-Butyl-2-[2-hydroxy-3-phenylmethyl-4-aza-5-oxo-6-N(ethanoyl)amino-7-benzyloxycarbonyl]heptylbenzamide]
0.451 | – | CC(=O)N[C@H](CC(=O)NCc1ccccn1)C(=O)N[C@@H](Cc1ccccc1)[C@H](O)Cc1ccccc1C(=O)NC(C)(C)C [Example 2, [2R-(2R*, 3S*, 6R*)]-N-t-Butyl-2-[2-hydroxy-3-phenylmethyl-4-aza-5-oxo-6-N(ethanoyl)amino-8-oxo-9-aza-10-pyrid-2-yl]decyl benzamide]
0.548 | – | CC(=O)N[C@H](CC(=O)Nc1cnc2ccccc2c1)C(=O)N[C@@H](Cc1ccccc1)[C@H](O)Cc1ccccc1C(=O)NC(C)(C)C [Example 3, [2R-(2R*, 3S*, 6R*)]-N-t-butyl-2-[2-hydroxy-3-phenylmethyl-4-aza-5-oxo-6-N(ethanoyl)amine-8-oxo-8-N (quinolin-3-yl)amine]octyl benzamide]
0.341 | – | CC(=O)N[C@H](CC(=O)NCc1ccccc1)C(=O)N[C@@H](Cc1ccccc1)[C@H](O)Cc1ccccc1C(=O)NC(C)(C)C [Example 4, [2R-(2R*, 3S*, 6R *]-N-t-butyl-2-[2-hydroxy-3-phenylmethyl-4-aza-5-oxo-6-N (ethanoyl)amino-8-oxo-9-aza-10-phenyl]decylbenzamide]
0.00858 | – | CN(C)S(=O)(=O)N[C@H](CC(=O)OCc1ccccc1)C(=O)N[C@@H](Cc1ccccc1)[C@H](O)Cc1ccccc1C(=O)NC(C)(C)C [Example 5, [2R-(2R*, 3S *, 6R*)]-N-t-butyl-2-[2-hydroxy-3-phenylmethyl-4-aza-5-oxo-6-N(dimethylaminosulfonyl)amino-7-benzyloxycarbonyl]heptyl benzamide]
0.0266 | – | CCC(=O)N[C@H](CC(=O)OCc1ccccc1)C(=O)N[C@@H](Cc1ccccc1)[C@H](O)Cc1ccccc1C(=O)NC(C)(C)C [Example 6, [2R-(2R*,3S*,6R*)]-N-t-butyl-2-[2-hydroxy-3-phenylmethyl-4-aza-5-oxo-6-N(propanoyl)amino-7-benzyloxycarbonyl]heptyl benzamide]
0.115 | – | CCCC(=O)N[C@H](CC(=O)OCc1ccccc1)C(=O)N[C@@H](Cc1ccccc1)[C@H](O)Cc1ccccc1C(=O)NC(C)(C)C [Example 7, [2R-(2R*, 3S *, 6R*)]-N-t-butyl-2-[2-hydroxy-3-phenylmethyl-4-aza-5-oxo-6-N(butanoyl)amino-7-benzyloxycarbonyl]heptyl benzamide]
0.00369 | – | CC(C)(C)NC(=O)c1ccccc1C[C@@H](O)[C@H](Cc1ccccc1)NC(=O)[C@@H](CC(=O)OCc1ccccc1)NS(C)(=O)=O [Example 8A, [2R-(2R*,3S*, 6R*)]-N-t-butyl-2-[2-hydroxy-3-phenylmethyl-4-aza-5-oxo-6-N(methylsulfonyl)amino-7-benzyloxycarbonyl]heptyl benzamide]
0.0136 | – | CC(C)(C)NC(=O)c1ccccc1C[C@@H](O)[C@H](Cc1ccccc1)NC(=O)[C@@H](CC(=O)Nc1ccc2ccccc2n1)NS(C)(=O)=O [Example 9, [2R-(2R*, 3S*, 6R*)]-N-t-butyl-2-[2-hydroxy-3-phenylmethyl-4-aza-5-oxo-6-N-(methylsulphonyl)amino-8-oxo-8-N (quinolin-2-yl)amino]octyl benzamide]
0.00434 | – | CC(C)(C)NC(=O)c1ccccc1C[C@@H](O)[C@H](Cc1ccccc1)NC(=O)[C@@H](CC(=O)NCc1ccccc1)NS(C)(=O)=O [Example 10, [2R-(2R*, 3S*, 6R*)]-N-t-butyl-2-[2-hydroxy-3-phenylmethyl-4-aza-5-oxo-6-N(methylsulfonyl)amino-8-oxo-8-N(benzyl)amino]octyl benzamide]
0.00252 | – | CC(C)(C)NC(=O)c1ccccc1C[C@@H](O)[C@H](Cc1ccccc1)NC(=O)[C@@H](CC(=O)NCc1ccc2ccccc2n1)NS(C)(=O)=O [Example 11, [2R-(2R*, 3S*, 6R)]-N-t-butyl-2-[2-hydroxy-3-phenylmethyl-4-aza-5-oxo-6-N(methylsulfonyl)amino-8-oxo-9-aza-10-quinolin-2-yl]decyl benzamide]
0.0289 | – | CC(C)(C)NC(=O)c1ccccc1C[C@@H](O)[C@H](Cc1ccccc1)NC(=O)[C@@H](CC(=O)OCc1ccccc1)NC(N)=O [Example 12, [2R-(2R*, 3S*, 6R*)]-N-t-butyl-2-[2-hydroxy-3-phenylmethyl-4-aza-5-oxo-6-N(carbamoyl)amino-7-benzyloxycarbonyl]heptyl benzamide]
– | 1 | CC(C)(C)NC(=O)c1ccccc1C[C@@H](O)[C@H](Cc1ccccc1)NC(=O)[C@H](N)COCc1ccccc1 [Example 13B, [2R-(2R*,3S*,6R*)]-N-t-Butyl-2-[2-hydroxy-3-phenylmethyl-4-aza-5-oxo-6-amino-7-benzyloxy]heptyl benzamide]
0.23 | – | CC(=O)N[C@H](COCc1ccccc1)C(=O)N[C@@H](Cc1ccccc1)[C@H](O)Cc1ccccc1C(=O)NC(C)(C)C [Example 13C, [2R-(2R*, 3S*, 6R*)]-N-t-Butyl-2-[2-hydroxy-3-phenylmethyl-4-aza-5-oxo-6-N(ethanoyl)amino-7-benzyloxy]heptyl benzamide]
0.0436 | – | CC(C)(C)NC(=O)c1ccccc1C[C@@H](O)[C@H](Cc1ccccc1)NC(=O)[C@@H](COCc1ccccc1)NS(C)(=O)=O [Example 14, [2R-(2R*, 3S*, 6R*)]-N-t-Butyl-2-[2-hydroxy-3-phenylmethyl-4-aza-5-oxo-6-N (methylsulfonyl)amino-7-benzyloxy]heptyl benzamide]
0.223 | – | CC(C)(C)NC(=O)c1ccccc1C[C@@H](O)[C@H](Cc1ccccc1)NC(=O)[C@H](N)CSc1ccc2ccccc2c1 [Example 15B, [2R-(2R*,3S*,6S*)]-N-t-Butyl-2-[2-hydroxy-3-phenylmethyl-4-aza-5-oxo-6-amino-7-naphth-2-ylthio]heptyl benzamide]
0.0106 | – | CC(=O)N[C@H](CSc1ccc2ccccc2c1)C(=O)N[C@@H](Cc1ccccc1)[C@H](O)Cc1ccccc1C(=O)NC(C)(C)C [Example 16A, [2R-(2R*, 3S*, 6S*)]-N-t-Butyl-2-[2-hydroxy-3-phenylmethyl-4-aza-5-oxo-6-N (ethanoyl)amino-7-naphth-2-ylthio]heptyl benzamide]
0.000186 | – | CC(=O)N[C@H](CS(=O)(=O)c1ccc2ccccc2c1)C(=O)N[C@@H](Cc1ccccc1)[C@H](O)Cc1ccccc1C(=O)NC(C)(C)C [Example 16B, [2R-(2R*,3S*,6S*)]-N-t-Butyl-2-[2-hydroxy-3-phenylmethyl-4-aza-5-oxo-6-N(ethanoyl)amino-7-naphth-2-ylsulfonyl]heptyl benzamide]

SMILES | IC50 [µM] | IC5 (read-out: Fluorescence Assay IC5) [µg/mL]
CC(C)(C)NC(=O)c1ccccc1C[C@@H](O)[C@H](Cc1ccccc1)NC(=O)[C@@H](CSc1ccc2ccccc2c1)NC(=O)OC(C)(C)C [Example 15A, [2R-(2R*,3S*,6S*)]-N-t-Butyl-2-[2-hydroxy-3-phenylmethyl-4-aza-5-oxo-6-N(t-butoxycarbonyl)amino-7-naphth-2-ylthio]heptyl benzamide] | > 1.49 | –
